Patent publication US8236964B2, “Thiazolidine derivatives as orexin receptor antagonists” (Actelion Pharmaceuticals Ltd., priority 2007, dated 2012)

Experiments:
human orexin-2 receptor = biological target: T1, human orexin-2 receptor (Homo sapiens, UniProt O43614); test: Intracellular calcium measurements (FLIPR), orexin receptor antagonistic activity, OX2; type: cell-based; details: CHO cells expressing the human orexin-2 receptor; 10 nM orexin-A as agonist
T1 construct: expressed in transfected cells; host or cells: CHO cells (G418 selection)
T1 sequence (O43614 1-444): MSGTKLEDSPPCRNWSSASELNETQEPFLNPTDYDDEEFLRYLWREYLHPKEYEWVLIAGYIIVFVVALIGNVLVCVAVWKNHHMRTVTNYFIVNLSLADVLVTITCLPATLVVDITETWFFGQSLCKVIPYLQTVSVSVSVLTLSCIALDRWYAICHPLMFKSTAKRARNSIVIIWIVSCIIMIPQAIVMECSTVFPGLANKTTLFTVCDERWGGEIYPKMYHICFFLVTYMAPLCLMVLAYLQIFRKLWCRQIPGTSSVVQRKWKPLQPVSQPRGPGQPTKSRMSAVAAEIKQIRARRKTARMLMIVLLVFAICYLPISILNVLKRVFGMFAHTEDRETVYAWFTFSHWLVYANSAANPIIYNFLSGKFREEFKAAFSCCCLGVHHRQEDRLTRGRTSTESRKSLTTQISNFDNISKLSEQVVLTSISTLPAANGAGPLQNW
Protocol: (§1) The orexin receptor antagonistic activity of the compounds of formula (I) is determined in accordance with the following experimental method.
(§2) Intracellular Calcium Measurements:
(§3) Chinese hamster ovary (CHO) cells expressing the human orexin-1 receptor and the human orexin-2 receptor, respectively, are grown in culture medium (Ham F-12 with L-Glutamine) containing 300 μg/ml G418, 100 U/ml penicillin, 100 μg/ml streptomycin and 10% inactivated fetal calf serum (FCS). The cells are seeded at 80,000 cells/well into 96-well black clear bottom sterile plates (Costar) which have been precoated with 1% gelatine in Hanks' Balanced Salt Solution (HBSS). All reagents are from Gibco BRL. The seeded plates are incubated overnight at 37° C. in 5% CO2.
(§4) Human orexin-A as an agonist is prepared as 1 mM stock solution in methanol:water (1:1), diluted in HBSS containing 0.1% bovine serum albumin (BSA) and 2 mM HEPES for use in the assay at a final concentration of 10 nM.
(§5) Antagonists are prepared as 10 mM stock solution in DMSO, then diluted in 96-well plates, first in DMSO, then in HBSS containing 0.1% bovine serum albumin (BSA) and 2 mM HEPES.
(§6) On the day of the assay, 100 μl of loading medium (HBSS containing 1% FCS, 2 mM HEPES, 5 mM probenecid (Sigma) and 3 μM of the fluorescent calcium indicator fluo-3 AM (1 mM stock solution in DMSO with 10% pluronic acid) (Molecular Probes) is added to each well.
(§7) The 96-well plates are incubated for 60 min at 37° C. in 5% CO2. The loading solution is then aspirated and cells are washed 3 times with 200 μl HBSS containing 2.5 mM probenecid, 0.1% BSA, 2 mM HEPES. 100 μl of that same buffer is left in each well.
(§8) Within the Fluorescent Imaging Plate Reader (FLIPR, Molecular Devices), antagonists are added to the plate in a volume of 50 μl, incubated for 20 min and finally 100 μl of agonist is added. Fluorescence is measured for each well at 1 second intervals, and the height of each fluorescence peak is compared to the height of the fluorescence peak induced by 10 nM orexin-A with buffer in place of antagonist. For each antagonist, IC50 value (the concentration of compound needed to inhibit 50% of the agonistic response) is determined. Antagonistic activities of compounds are in the nanomolar range below 1000 nM with respect to the OX1 and/or the OX2 receptor.

human orexin-1 receptor = biological target: T2, human orexin-1 receptor (Homo sapiens, UniProt O43613); test: Intracellular calcium measurements (FLIPR), orexin receptor antagonistic activity, OX1; type: cell-based; details: CHO cells expressing the human orexin-1 receptor; 10 nM orexin-A as agonist
T2 construct: expressed in transfected cells; host or cells: CHO cells (G418 selection)
T2 sequence (O43613 1-425): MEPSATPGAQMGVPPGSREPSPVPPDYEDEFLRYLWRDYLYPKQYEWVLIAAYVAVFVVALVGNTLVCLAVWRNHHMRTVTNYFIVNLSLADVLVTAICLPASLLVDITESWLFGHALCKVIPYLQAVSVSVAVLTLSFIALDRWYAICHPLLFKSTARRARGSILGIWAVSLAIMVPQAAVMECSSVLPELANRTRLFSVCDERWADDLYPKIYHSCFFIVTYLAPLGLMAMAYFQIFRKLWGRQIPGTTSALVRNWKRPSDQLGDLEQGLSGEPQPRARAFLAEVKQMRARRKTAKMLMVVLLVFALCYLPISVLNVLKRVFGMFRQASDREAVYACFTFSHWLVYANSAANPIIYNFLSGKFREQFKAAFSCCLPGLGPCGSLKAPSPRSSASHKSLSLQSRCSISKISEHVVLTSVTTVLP
Protocol: as §1, §2, §3, §4, §5, §6, §7
as §8, with “determined.” for “determined. Antagonistic activities of compounds are in the nanomolar range below 1000 nM with respect to the OX1 and/or the OX2 receptor.”

SMILES | IC50 (human orexin-2 receptor) [nM] | IC50 (human orexin-1 receptor) [nM]
Cc1nc(C(=O)N2CSC[C@H]2CNC(=O)c2nn(C)c3ccccc23)c(-c2ccc(F)cc2)s1 [Example 4, 1-Methyl-1H-indazole-3-carboxylic acid {(R)-3-[5-(4-fluoro-phenyl)-2-methyl-thiazole-4-carbonyl]-thiazolidin-4-ylmethyl}-amide] | 8 | –
COc1cccc(-c2sc(C)nc2C(=O)N2CSC[C@H]2CNC(=O)c2cccc3occc23)c1 [Example 11, Benzofuran-4-carboxylic acid {(R)-3-[5-(3-methoxy-phenyl)-2-methyl-thiazole-4-carbonyl]-thiazolidin-4-ylmethyl}-amide] | 1 | 1
Cc1nc(C(=O)N2CSC[C@H]2CNC(=O)c2c(C)nc3sccn23)c(-c2cccc(F)c2)s1 [Example 31, 6-Methyl-imidazo[2,1-b]thiazole-5-carboxylic acid {(R)-3-[5-(3-fluoro-phenyl)-2-methyl-thiazole-4-carbonyl]-thiazolidin-4-ylmethyl}-amide] | 7 | 6
Cc1nc(C(=O)N2CSC[C@H]2CNC(=O)c2c(C)nc3sccn23)c(-c2cccc(C(F)(F)F)c2)o1 [Example 38, 6-Methyl-imidazo[2,1-b]thiazole-5-carboxylic acid {(R)-3-[2-methyl-5-(3-trifluoromethyl-phenyl)-oxazole-4-carbonyl]-thiazolidin-4-ylmethyl}-amide] | 80 | 59
Cc1ccc(-c2nc(C)sc2C(=O)N2CSC[C@H]2CNC(=O)c2c(C)nc3sccn23)cc1 [Example 41, 6-Methyl-imidazo[2,1-b]thiazole-5-carboxylic acid [(R)-3-(2-methyl-4-p-tolyl-thiazole-5-carbonyl)-thiazolidin-4-ylmethyl]-amide] | 11 | 7
O=C(NC[C@@H]1CSCN1C(=O)c1ccccc1-c1ccccc1)c1cccc2occc12 [Example 79, Benzofuran-4-carboxylic acid [(R)-3-(biphenyl-2-carbonyl)-thiazolidin-4-ylmethyl]-amide] | 9 | 23
Cn1nc(C(=O)NC[C@@H]2CSCN2C(=O)c2ccccc2-c2ccccc2)c2ccccc21 [Example 83, 1-Methyl-1H-indazole-3-carboxylic acid [(R)-3-(biphenyl-2-carbonyl)-thiazolidin-4-ylmethyl]-amide] | 6 | 6
Cc1nc(C(=O)N2CSC[C@H]2CNC(=O)c2cc3ccccc3s2)c(-c2ccc(F)cc2)s1 [Example 91, Benzo[b]thiophene-2-carboxylic acid {(R)-3-[5-(4-fluoro-phenyl)-2-methyl-thiazole-4-carbonyl]-thiazolidin-4-ylmethyl}-amide] | 22 | 5950
Cc1nc(C(=O)N2CSC[C@H]2CNC(=O)c2c(C)nc3ccccn23)c(-c2ccc(F)cc2)s1 [Example 110, 2-Methyl-imidazo[1,2-a]pyridine-3-carboxylic acid {(R)-3-[5-(4-fluoro-phenyl)-2-methyl-thiazole-4-carbonyl]-thiazolidin-4-ylmethyl}-amide] | 804 | 99

The remaining lines, values ahead:

IC50 (human orexin-2 receptor) [nM] | IC50 (human orexin-1 receptor) [nM] | SMILES
17 | 6 | Cc1nc(C(=O)N2CSC[C@H]2CNC(=O)c2cccc3c2NCCO3)c(-c2ccc(F)cc2)s1 [Example 112, 3,4-Dihydro-2H-benzo[1,4]oxazine-5-carboxylic acid {(R)-3-[5-(4-fluoro-phenyl)-2-methyl-thiazole-4-carbonyl]-thiazolidin-4-ylmethyl}-amide]
3 | 2 | Cc1cccc(-c2sc(C)nc2C(=O)N2CSC[C@H]2CNC(=O)c2cccc3ncoc23)c1 [Example 119, Benzooxazole-7-carboxylic acid [(R)-3-(2-methyl-5-m-tolyl-thiazole-4-carbonyl)-thiazolidin-4-ylmethyl]-amide]
1 | 2 | Cc1cccc(-c2sc(C)nc2C(=O)N2CSC[C@H]2CNC(=O)c2ccc(F)c3occc23)c1 [Example 127, 7-Fluoro-benzofuran-4-carboxylic acid [(R)-3-(2-methyl-5-m-tolyl-thiazole-4-carbonyl)-thiazolidin-4-ylmethyl]-amide]
6 | 5 | Cc1nc(C(=O)N2CSC[C@H]2CNC(=O)c2c(C)cn3ccsc23)c(-c2ccc(F)cc2)s1 [Example 132, 6-Methyl-pyrrolo[2,1-b]thiazole-7-carboxylic acid {(R)-3-[5-(4-fluoro-phenyl)-2-methyl-thiazole-4-carbonyl]-thiazolidin-4-ylmethyl}-amide]
3 | 8 | COC1Cc2c(C(=O)NC[C@@H]3CSCN3C(=O)c3nc(C)sc3-c3cccc(C)c3)ccc(Cl)c2O1 (stereo partly drawn) [Example 133, 7-Chloro-2-methoxy-2,3-dihydro-benzofuran-4-carboxylic acid [(R)-3-(2-methyl-5-m-tolyl-thiazole-4-carbonyl)-thiazolidin-4-ylmethyl]-amide]
4 | 10 | Cc1cccc(-c2sc(C)nc2C(=O)N2CSC[C@H]2CNC(=O)c2ccc(C(F)(F)F)c3occc23)c1 [Example 141, 7-Trifluoromethyl-benzofuran-4-carboxylic acid [(R)-3-(2-methyl-5-m-tolyl-thiazole-4-carbonyl)-thiazolidin-4-ylmethyl]-amide]
10 | 9 | Cc1cccc(-c2sc(C)nc2C(=O)N2CSC[C@H]2CNC(=O)c2cccc3oc(CO)cc23)c1 [Example 147, 2-Hydroxymethyl-benzofuran-4-carboxylic acid [(R)-3-(2-methyl-5-m-tolyl-thiazole-4-carbonyl)-thiazolidin-4-ylmethyl]-amide]
